# Laboratory results published in patent US5383848A, “Iontophoretic administration of drugs” (Gensia, Inc., priority 1991, dated 1995).
# “Also recorded” adds a separate entry of the source.
# Tested on: elevated heart rate
# Assay: In vivo dog experiments: heart rate offset after iontophoretic ESA drug with pretreatment (Example A)
# Design: species or system labrador dogs
# Settings: for Offset Slope Component (0-5) min: 0-5 min after heart rate begins to decline; for Offset Slope Component (5-10) min: 5-10 min after decline begins; for Offset Slope Component (10-30) min: 10-30 min after decline begins; for Change in Heart Rate (peak minus baseline) / Peak Heart Rate: Table II; for Total time (startup) thru offset plateau: w/in 20 bpm of baseline / Total time (startup) thru offset plateau: in words / t 1/2 of elevated heart rate decay / Total time (startup) thru offset plateau: w/in 10 bpm of baseline: Table IV; for Onset Slope: baseline at onset time to peak heart rate; for Offset time: drug delivery stopped until within 20 bpm of baseline; for Offset Slope: drug shut-off to 20 bpm above baseline; for Delay: drug shut-off to start of heart rate decline; for t 1/2 of elevated heart rate decay: exponential fit; for Reduction in offset time: iontophoretic pre-delivery; for Onset time: start of delivery to start of increase in heart rate; for Time Start Decline: time when elevated heart rate began to decline
smiles,measurement,setting,value
"COC(=O)c1cccnc1 [Methyl Nicotinate, methyl ester of nicotinic acid]",Offset Slope Component (0-5) min,listed as 9,-2.40 beats per minute per minute
same,Offset Slope Component (0-5) min,listed as 10,-1.40 beats per minute per minute
same,Offset Slope Component (5-10) min,listed as 9,-0.40 beats per minute per minute
same,Offset Slope Component (5-10) min,listed as 10,-2.40 beats per minute per minute
same,Offset Slope Component (10-30) min,listed as 9,-0.28 beats per minute per minute
same,Offset Slope Component (10-30) min,listed as 10,-1.90 beats per minute per minute
same,Change in Heart Rate (peak minus baseline),listed as 9,55 bpm
same,Peak Heart Rate,listed as 9,117 bpm
same,Change in Heart Rate (peak minus baseline),listed as 10,81 bpm
same,Peak Heart Rate,listed as 10,152 bpm
same,Total time (startup) thru offset plateau: w/in 20 bpm of baseline,,55 min
same,Total time (startup) thru offset plateau: in words,listed as 9,Never Reached w/in 20 bpm of baseline
same,Total time (startup) thru offset plateau: in words,listed as 10,never lower
same,Onset Slope,listed as 9,4.20 beats per minute per minute
same,Onset Slope,listed as 10,12.30 beats per minute per minute
same,Offset time,listed as 9,29.00 min
same,Offset time,listed as 10,31.00 min
same,Offset Slope,listed as 9,-0.40 beats per minute per minute
same,Offset Slope,listed as 10,-1.70 beats per minute per minute
same,Delay,listed as 9,6.50 min
same,Delay,listed as 10,2.50 min
same,t 1/2 of elevated heart rate decay,,21.36 min
same,Reduction in offset time,,also reduce offset time
same,Onset time,listed as 9,15.00 min
same,Onset time,listed as 10,7.00 min
same,Time Start Decline,listed as 9,25.00 min
same,Time Start Decline,listed as 10,20.50 min
Cc1ccc(N(CC2=NCCN2)c2cccc(O)c2)cc1 [Phentolamine],Reduction in offset time,,found effective when pre-delivered iontophoretically
CC(COc1ccccc1)N(CCCl)Cc1ccccc1 (stereo not drawn) [Phenoxybenzamine],Offset Slope Component (0-5) min,listed as 18,-4.20 beats per minute per minute
same,Offset Slope Component (0-5) min,listed as 19,-4.90 beats per minute per minute
same,Offset Slope Component (5-10) min,listed as 18,0.02 beats per minute per minute
same,Offset Slope Component (5-10) min,listed as 19,-2.00 beats per minute per minute
same,Offset Slope Component (10-30) min,listed as 18,-0.53 beats per minute per minute
same,Offset Slope Component (10-30) min,listed as 19,-1.80 beats per minute per minute
same,Change in Heart Rate (peak minus baseline),listed as 18,57 bpm
same,Peak Heart Rate,listed as 18,117 bpm
same,Change in Heart Rate (peak minus baseline),listed as 19,79 bpm
same,Peak Heart Rate,listed as 19,149 bpm
same,Total time (startup) thru offset plateau: w/in 10 bpm of baseline,listed as 18,60 min
same,Total time (startup) thru offset plateau: w/in 10 bpm of baseline,listed as 19,48 min
same,Onset Slope,listed as 18,3.70 beats per minute per minute
same,Onset Slope,listed as 19,13.90 beats per minute per minute
same,Offset time,listed as 18,30.00 min
same,Offset time,listed as 19,25.80 min
same,Offset Slope,listed as 18,-0.80 beats per minute per minute
same,Offset Slope,listed as 19,-2.30 beats per minute per minute
same,Delay,listed as 18,10.00 min
same,Delay,listed as 19,3.50 min
same,t 1/2 of elevated heart rate decay,listed as 18,16.96 min
same,t 1/2 of elevated heart rate decay,listed as 19,11.52 min
same,Reduction in offset time,,found effective when pre-delivered iontophoretically; also recorded: also reduce offset time
same,Onset time,listed as 18,18.00 min
same,Onset time,listed as 19,7.40 min
same,Time Start Decline,listed as 18,28.00 min
same,Time Start Decline,listed as 19,22.00 min
CC[C@@H]1C(=O)OC[C@@H]1Cc1cncn1C [Pilocarpine],Offset Slope Component (0-5) min,listed as 7,-1.70 beats per minute per minute
same,Offset Slope Component (0-5) min,listed as 8,-7.60 beats per minute per minute
same,Offset Slope Component (5-10) min,listed as 7,-2.50 beats per minute per minute
same,Offset Slope Component (5-10) min,listed as 8,-1.40 beats per minute per minute
same,"Percent decline in heart rate, ranking","5-10 minute interval, FIG. 1",next highest percent declines
same,Offset Slope Component (10-30) min,listed as 7,-1.10 beats per minute per minute
same,Offset Slope Component (10-30) min,listed as 8,-1.00 beats per minute per minute
same,"Delay to onset of heart rate decline, ranking",FIG. 2,shortest delay
same,Change in Heart Rate (peak minus baseline),listed as 7,73 bpm
same,Peak Heart Rate,listed as 7,133 bpm
same,Change in Heart Rate (peak minus baseline),listed as 8,114 bpm
same,Peak Heart Rate,listed as 8,191 bpm
same,Total time (startup) thru offset plateau: in words,,Never reached w/in 20 bpm of baseline
same,Total time (startup) thru offset plateau: w/in 20 bpm of baseline,,60 min
same,Onset Slope,listed as 7,11.60 beats per minute per minute
same,Onset Slope,listed as 8,11.20 beats per minute per minute
same,Offset time,listed as 7,38.00 min
same,Offset time,listed as 8,36.00 min
same,Offset Slope,listed as 7,-1.10 beats per minute per minute
same,Offset Slope,listed as 8,-1.70 beats per minute per minute
same,Delay,listed as 7,1.30 min
same,Delay,listed as 8,5.30 min
same,t 1/2 of elevated heart rate decay,listed as 7,28.85 min
same,t 1/2 of elevated heart rate decay,listed as 8,21.36 min
same,Reduction in offset time,,also reduce offset time
same,Onset time,listed as 7,6.70 min
same,Onset time,listed as 8,13.00 min
same,Time Start Decline,listed as 7,23.80 min
same,Time Start Decline,listed as 8,24.30 min
